US4804665A, “Azaspiro compounds and their use” (Takeda Chemical Industries, Ltd., priority 1986, dated 1989)
Counter-ions that a name gives are not always drawn.

How the values were obtained:
[1] = tested on: mice; assay: General Symptoms (Side Effects) in mice; type: in vivo; set-up: key: +++: marked; ++: moderate; +: mild; -: nondetected; conditions: i.p., observed for 4 hours; for Hypothermia / Sedation / Tremor: central effect; for Diarrhea / Mydriasis / Salivation: peripheral effect
Procedure: General Symptoms (Side Effects) Four mice were used for each group. Mice were placed in stainless steel cages (13×18×25 cm) and after a 1-hr habitation period the compounds were administered. […] Peripheral and central effects of the compounds were estimated with the incidences of diarrhea, salivation and mydriasis and with the incidences of tremor and sedation and a grade of hypothermia, respectively. The compounds which were soluble in saline were solubilized in saline and the other were suspended in 5% arabic gum solution. Each compound was administered intraperitoneally (i.p.).

[2] = tested on: CO2-induced amnesia in mice; assay: Effect on CO2-induced amnesia in mice (passive avoidance response); type: in vivo, mice (male ICR); conditions: p.o.; for minimal effective dose: Mus musculus, po, mice, read-out: Anti-amnesia MED (minimum effective dose for CO2-induced amnesia); for Anti-amnesia (latency, percent change of the mean time of the vehicle-treated control group): 30 min before the test, saline = 100
Procedure: Effect on CO2 -induced amnesia in mice Effect of the compound (I) on […] of passive avoidance response, induced by exposing mice to 100% CO2 gas, was evaluated. Male ICR mice (Japan Clea) aged 5 weeks were used. The experimental apparatus consisted of two chambers, in which one illuminated chamber (9×9×25 cm) was connected to a dark chamber (25×25×30 cm) with a guillotine door. Each mouse was placed in the illuminated chamber and then allowed to enter the dark one. When the mouse entered the dark chamber, the door was closed and AC 0.5 mA footshock was applied to the floor grid of the dark chamber. The mouse can memorize the experience after receiving the uncomfortable stimulus for a few weeks. Next, the consolidation processes of memory were disturbed by an experimental manipulation: Each mouse was placed under the hypoxic condition by being placed into a 4L desiccator filled with 100% CO2 gas, immediately after receiving the footshock in the dark chamber. When his respiratory function was stopped, the mouse was taken out from the desiccator and given an artificial respiration till recovering spontaneous respiration. This procedure disturbed the consolidation of the memory (experience of footshock). On the next day, a retention test was performed to see whether the mouse memorized the footshock or not. In the test, the mouse was again placed in the illuminated compartment and the latency to enter the dark compartment was measured. The mice subjected to hypoxia entered the dark compartment with short latency, 10-20 sec. […] The ameliorating effect of compounds on the amnesia induced by hypoxia was evaluated by the latency time, and was expressed as the percent change of the mean time of the vehicle-treated control group (Table 6.).

[3] = LD50 value and Therapeutic index; conditions: mouse, in vivo, po; for LD50: mice; for selectivity ratio: ratio of LD50 value to MED for CO2-induced amnesia
Source text: LD50 value and Therapeutic index
Ten mice were used for each group. LD50 value and therapeutic index were estimated with the dose (mg/kg, p.o.) which induced death in 50% of mice and with a ratio of LD50 value to a minimum effective dose (MED) for CO2 -induced amnesia, respectively.

[4] = dose 0.3 mg/kg, * P < 0.05, ** P < 0.01

Structure (SMILES)	Hypothermia [1]	Sedation [1]	Tremor [1]	Diarrhea [1]	Mydriasis [1]	Salivation [1]	minimal effective dose [2]	Anti-amnesia (latency, percent change of the mean time of the vehicle-treated control group) ([2]; dose 0.1 mg/kg, * P < 0.05)	Anti-amnesia (latency, percent change of the mean time of the vehicle-treated control group) [2, 4]	LD50 [3]	selectivity ratio [3]	Anti-amnesia (latency, percent change of the mean time of the vehicle-treated control group) ([2]; dose 1.0 mg/kg, * P < 0.05)
CON1C(=O)CC2(CCNCC2)C1=O [Example 9, 2-Methoxy-2,8-diazaspiro[4,5]decane-1,3-dionehydrochloride]	+	++	-	++	-	+++	0.1 mg/kg	227%	321%	2010 mg/kg	20100	
CON1C(=O)CC2(CCN(C)CC2)C1=O.Cl [Example 1, 2-Methoxy-8-methyl-2,8-diazaspiro[4,5]decane-1,3-dione hydrochloride]	-	++	++	-	-	+++		277%				
CCN1C(=O)CC2(CCN(C)CC2)C1=O [RS-86, reference compound]	+++	+++	+	+++	++	+++	0.3 mg/kg		258%	574 mg/kg	1910	
CON1C(=O)CC2(CCN(C(=O)OCCBr)CC2)C1=O [Example 22, 8-(2-Bromoethoxycarbonyl)-2-methoxy-2,8-diazaspiro[4,5]decane-1,3-dione]	+	+	-	+	+	+						311%
